The results in this text go back to patent US20040097408A1, “Compounds regulating cell proliferation and differentiation” (priority 2001, published 2004).

One assay relates to A6 cells. The assay can be described thus: effect of FCCP and valinomycin on F16 accumulation in mitochondria. Format: cell-based, mouse. The conditions noted are these: F16 3 μM.
Assay [1] relates to EpH4-A6, FKBR3, MDA-MD-468 and MCF-7 cells. Briefly: cytoblot of QR on transformed cells. Format: cell-based. An excerpt: (§1) The compound was included in cytoblot experiments, as described above, on the following cells: EpH4-A6 and control EpH4-EV cells and the following human breast cancer cell lines: FKBR3 (Neu positive cells); MDA-MD-468 (which over-express EGFR); and MCF-7 (which over-express Her3/ErbB3; EGFR and Neu).

Another assay deals with control EpH4-EV cells. The assay can be described thus: cytoblot of QR on normal cells. Format: cell-based, mouse.
Text: as §1

For assay [2], the system named is mitochondria of cancer cells. The assay can be described thus: accumulation of QR in mitochondria. The class given is cell-based.

Procedure for A6 cells: In order to test the contribution of the mitochondrial membrane potential (ΔΨm) to the accumulation of F16 in mitochondria, the effect of FCCP, an uncoupler of mitochondrial respiration, and the effect of valinomycin, a potassium ionosphore, were tested.
The effect of the protonophore FCCP on F16 accumulation was performed as previously done for the colocalization experiments described above. EpH4-A6 cells preincubated with F16 (3 μM) were subsequently treated with 5 μM FCCP. Images were acquired immediately before, 1 min and 5 min after FCCP addition and visulized under 40× magnification.

As for `N#CC(C#N)=NNc1ccc(OC(F)(F)F)cc1` [FCCP], in the assay with A6 cells, the “effect of preincubation on F16 entry and accumulation in mitochondria” value is “retarded the entry and greatly reduced the overall accumulation of F16 inside mitochondria”.
In the case of `CC[n+]1c(/C=C/c2ccc(N(C)C)cc2)ccc2ccccc21` [QR, Quinaldine Red], the “proliferation of transformed cells at 10 nM” value in assay [1] (10 nM) was “partially inhibited”. Further, the “proliferation of transformed cells at 100 nM” value in assay [1] (100 nM) is recorded as “essentially completely inhibited”. Moreover, in assay [1] (all of the transformed cells tested), the “concentration inhibiting proliferation of transformed cells (as low as)” value is 10 nM. Further, in the assay with control EpH4-EV cells, the “concentration inhibiting normal cells” value was not below 10 µM. The accumulation in mitochondria result in assay [2] was “accumulate in mitochondria of cancer cells and essentially not in mitochondria of normal cells”.
In the case of `CC(C)[C@@H]1NC(=O)[C@H](C)OC(=O)[C@@H](C(C)C)NC(=O)[C@@H](C(C)C)OC(=O)[C@H](C(C)C)NC(=O)[C@H](C)OC(=O)[C@@H](C(C)C)NC(=O)[C@@H](C(C)C)OC(=O)[C@H](C(C)C)NC(=O)[C@H](C)OC(=O)[C@@H](C(C)C)NC(=O)[C@@H](C(C)C)OC1=O` [valinomycin], in the assay on A6 cells, the “effect of preincubation on F16 entry and accumulation in mitochondria” value is “retarded the entry and greatly reduced the overall accumulation of F16 inside mitochondria”.
